{
  "source": "patent US20030118985A1",
  "about": "“Mouse monoclonal antibody (5-21-3) to human immunodeficiency virus gp41 protein” (priority 1997, published 2003)",
  "key": {"[1]": {"system": "monoclonal antibody 5-21-3", "assay": "Immuno-dot blot of synthetic peptides with 5-21-3", "assay_type": "binding, mouse", "details": "25 ug/ml 5-21-3; peptide spotted on nitrocellulose", "excerpt": "(§1) The western Blot procedure described in Example 1 was employed for development of immuno-dot blots using synthetic peptides, except that synthetic peptides were fixed to nitrocellulose by direct application using Drummond lambda pipettes, and air dried prior to blocking with 20% fetal calf serum in PBS (pH 7.4)."}, "[2]": {"system": "monoclonal antibody 10-15-63", "assay": "Immuno-dot blot of synthetic peptides with 10-15-63", "assay_type": "binding, mouse", "details": "25 ug/ml 10-15-63", "excerpt": "as §1"}, "[3]": {"system": "Rabbit (R) anti-P58-130 serum", "assay": "Immuno-dot blot of synthetic peptides with rabbit anti-P58-130 serum", "assay_type": "binding", "details": "2% serum", "excerpt": "as §1"}, "[4]": {"system": "mouse (M) anti-rp41 serum", "assay": "Immuno-dot blot of synthetic peptides with mouse anti-rp41 serum", "assay_type": "binding", "details": "2% serum", "excerpt": "as §1"}, "[5]": {"system": "monoclonal antibody 5-21-3", "assay": "Immunoprecipitation of [125I] synthetic peptides by 5-21-3", "assay_type": "binding, mouse", "details": "for SPECIFIC PRECIPITATION (CPM) by 5-21-3 / x-fold increase of specific over non-specific precipitation, 5-21-3: 5-21-3 10 μg/0.2 ml", "method": "(§2) Synthetic peptides were radiolabeled with ^125I (Amersham) by the chloramine T method (N. M. Hunter, “Radioimmunoassay” in D. M. Weir, Ed., Handbook of Experimental Immunology, [Blackwell Scientific Publications, 1973]). Generally, 2-6 ul of 100 mCi/ml ^125I were added to 10-50 ug of peptide in PBS, pH 7.4. Approximately 10 ug of freshly prepared (1 mg/ml in PBS) chloramine T were added to the mixture maintained at 4° C. After 5 min., [^125I]peptide was separated from free ^125I by passage of the reaction mixture through a 3 ml (bed volume) column of Biogel P-6 or P-2, as required. Fractions (200 ul each) containing [^125I]peptide were pooled and diluted into PBS containing 20% fetal calf serum. Rough estimations of ^125I cpm bound to peptide were made by acid precipitation. An aliquot of labeled peptide was diluted into 1 ml of ice cold 50% trichloroacetic acid (TCA) overlaying a 0.45 um filter (made of mixed cellulose esters) set on a scintered glass filter connected to a vacuum apparatus. Precipitated protein was fixed onto the filter by application of vacuum, and filters were washed with ice-cold 50% TCA. Background cpm adhering non-specifically to the filter were estimated by repeating the procedure using a non-precipitating buffer. Amounts of peptide, ^125I, chloramine T, and composition of column eluting buffer were subject to change depending on conditions required to maintain solubility of each peptide.\n(§3) Synthetic peptides radiolabeled with ^125I were diluted into PBS (pH 7.4) containing 0.1% Triton X-100 (or other detergents where indicated) and 1.0% BSA, to yield approximately 2.5-5×10^5 acid-precipitable cpm per 0.1 ml. Purified monoclonal IgG 5-21-3 and 10-15-63 were employed in the assay. Monoclonal antibodies were diluted into PBS containing 0.1% Triton X-100 (or other detergents where indicated), 1.0% BSA, and 2% normal mouse serum as a carrier immunoglobulin. Immune rabbit serum (anti-P58-130) was diluted appropriately into the same buffer except that normal rabbit serum (2%) was substituted for normal mouse serum as the carrier immunoglobulin. A reaction mixture comprising 0.1 ml [^125I] peptide (5×10^5 cpm/0.1 ml) and 0.1 ml diluted antibody was incubated 1 hr at 40° C., followed by addition of 0.1 ml of a precipitating antibody, either goat anti-mouse IgG, or goat anti-rabbit IgG, corresponding to the primary antibody. The reaction mixture was incubated 1 hr at 40° C. and then overnight at 4° C. […] Precipitation assays employing Protein A-Sepharose as the precipitating reagent were performed in a similar manner, except that normal sera were omitted from the reaction mixtures."}, "[6]": {"system": "monoclonal antibody 10-15-63", "assay": "Immunoprecipitation of [125I] synthetic peptides by 10-15-63", "assay_type": "binding, mouse", "details": "for SPECIFIC PRECIPITATION (CPM) by 10-15-63 / x-fold increase of specific over non-specific precipitation, 10-15-63: 10-15-63 10 μg/0.2 ml", "method": "as §2, §3"}, "[7]": {"system": "Rabbit (R) anti-P58-130 serum", "assay": "Immunoprecipitation of [125I] synthetic peptides by rabbit anti-P58-130 serum", "assay_type": "binding", "details": "for SPECIFIC PRECIPITATION (CPM) by RαP58-130 / x-fold increase of specific over non-specific precipitation, RαP58-130: rabbit anti-P58-130 serum 20 ul/0.2 ml", "method": "as §2, §3"}, "[8]": {"system": "binding of antibody 5-21-3 to rp41", "assay": "Binding inhibition assay: peptides inhibit binding of 5-21-3 to rp41", "set-up": "species or system HIV I", "method": "Additional evidence for the conformationl nature of the 5-21-3 epitope was obtained using binding inhibition studies, in which synthetic peptides were ranked for their ability to inhibit binding of 5-21-3 to rp41. First, the Fab dimer of an anti-gp41 monoclonal antibody was prepared by conventional methods (Goding et al., supra). Then 100 ul of a 1 mg/ml solution of the Fab dimer in bicarbonate buffer (pH 9.6) was coated onto Immulon II microtiter plates for 1 hr at 37° C. After washing with PBS containing 0.05% Tween 20, the plates were overcoated with 200 ul of 1.0% ovalbumin in bicarbonate buffer (pH 9.6) for 1 hr at 30° C. After washing, 100 ul of rp41 enriched E. coli lysate (as described in Example 3), diluted appropriately in PBS containing 0.05% Tween 20, were allowed to bind to the Fab dimer for 2 hr at 30° C. The plates were washed and stored at 4° C.\nIntact monoclonal antibody 5-21-3 IgG (purified from tissue culture fluid supporting growth of the cloned cell line 5-21-3) was titrated against the bound rp41 on the plate, and an antibody concentration was selected which yielded an A492 value of 2.0-3.0. Usually, 0.4 pmol (0.06 ug) of 5-21-3 IgG per microtiter well was employed in these assays. Stock solutions of 5-21-3 IgG were prepared in PBS containing 0.1% Triton X-100 and 0.1% SDS. Dilutions of synthetic peptides were made in the same buffer (SDS was included in these experiments to keep peptides soluble at high concentrations).\nThe binding inhibition assay was performed by combining 0.15 ml of 1.2 ug/ml 5-21-3 antibody stock solution with 0.15 ml of peptide at a selected peptide concentration, and incubating the reaction mixture 1 hr at room temp. Then 0.1 ml aliquots of each reaction mixture were added to each of two wells in the microtiter tray. After a 1 hr incubation at room temp., the plates were washed, and HRPO conjugated Goat anti-mouse IgG Fc was added for 1 hr at room temp. The plates were washed, and addition of OPD for color development identified the relative amounts of 5-21-3 bound to rp41 in the microtiter wells. The reaction was stopped by addition of 100 ul of 1N H2SO4, and the plates were read on a Dynatech II microtiter plate reader."}, "[9]": {"details": "PBS, 0.1% Triton X-100, 1.0% BSA, carrier serum, second antibody precipitation"}, "[10]": {"details": "second antibody precipitation, vs normal mouse IgG"}, "[11]": {"details": "detergent-rich buffer, Protein A-Sepharose"}},
  "note": "Entries after “also recorded” stand apart in the source; their conditions may differ.",
  "data": [
    {"substance": "ARILAVERYLKDQQLLGIWGCSGKLICTTAVPWNASWSNKSLEQIWNNMTWMEWDREINNYSLIHSLIEESQNQQEKNELLELNK [P67-154]", "values": [
      {"measurement": "immuno-dot blot reactivity with 5-21-3", "setting": "[1]", "result": "very strong reaction"},
      {"measurement": "immuno-dot blot reactivity with 10-15-63", "setting": "[2]", "result": "Little or no reactivity"},
      {"measurement": "immuno-dot blot reactivity with rabbit anti-P58-130 serum", "setting": "[3]", "result": "Strong reactivities"},
      {"measurement": "immuno-dot blot reactivity with mouse anti-rp41 serum", "setting": "[4]", "result": "Strong reactivities"},
      {"measurement": "binding of [125I]peptide by 5-21-3 (immunoprecipitation), in words", "setting": "[5]", "result": "readily bound"},
      {"measurement": "SPECIFIC PRECIPITATION (CPM)", "setting": "[5]; 5-21-3 1.0 μg/ml final", "result": "165,781 CPM"},
      {"measurement": "x-fold increase of specific over non-specific precipitation", "setting": "[5]; 5-21-3 1.0 μg/ml final", "result": "(3.6) x-fold"},
      {"measurement": "SPECIFIC PRECIPITATION (CPM) by 5-21-3", "setting": "[5]; [9]", "result": "479,207 CPM"},
      {"measurement": "x-fold increase of specific over non-specific precipitation, 5-21-3", "setting": "[5]; [10]", "result": "(16) x-fold"},
      {"measurement": "SPECIFIC PRECIPITATION (CPM)", "setting": "[5]; 5-21-3 10.0 μg/ml final", "result": "441,887 CPM"},
      {"measurement": "x-fold increase of specific over non-specific precipitation", "setting": "[5]; 5-21-3 10.0 μg/ml final", "result": "(8.5 x-fold"},
      {"measurement": "SPECIFIC PRECIPITATION (CPM)", "setting": "[5]; 5-21-3 100.0 μg/ml final", "result": "659,045 CPM"},
      {"measurement": "x-fold increase of specific over non-specific precipitation", "setting": "[5]; 5-21-3 100.0 μg/ml final", "result": "(8.0) x-fold"},
      {"measurement": "5-21-3 concentration required to demonstrate binding of the peptide", "setting": "[5]; immunoprecipitation, Table 5", "result": "≤ 1", "unit": "µg/mL"},
      {"measurement": "SPECIFIC PRECIPITATION (CPM)", "setting": "[6]; 10-15-63 1.0 μg/ml final", "result": 0, "unit": "CPM"},
      {"measurement": "x-fold increase of specific over non-specific precipitation", "setting": "[6]; 10-15-63 1.0 μg/ml final", "result": "(0) x-fold"},
      {"measurement": "SPECIFIC PRECIPITATION (CPM) by 10-15-63", "setting": "[6]; [9]", "result": 9713, "unit": "CPM"},
      {"measurement": "x-fold increase of specific over non-specific precipitation, 10-15-63", "setting": "[6]; [10]", "result": "(1.3) x-fold"},
      {"measurement": "SPECIFIC PRECIPITATION (CPM)", "setting": "[6]; 10-15-63 10.0 μg/ml final", "result": 0, "unit": "CPM"},
      {"measurement": "x-fold increase of specific over non-specific precipitation", "setting": "[6]; 10-15-63 10.0 μg/ml final", "result": "(0) x-fold"},
      {"measurement": "SPECIFIC PRECIPITATION (CPM)", "setting": "[6]; 10-15-63 100.0 μg/ml final", "result": 0, "unit": "CPM"},
      {"measurement": "x-fold increase of specific over non-specific precipitation", "setting": "[6]; 10-15-63 100.0 μg/ml final", "result": "(0) x-fold"},
      {"measurement": "precipitation of [125I]peptide by rabbit anti-P58-130, in words", "setting": "[7]", "result": "strong precipitator"},
      {"measurement": "SPECIFIC PRECIPITATION (CPM) by RαP58-130", "setting": "[7]; second antibody precipitation", "result": "479,343 CPM"},
      {"measurement": "x-fold increase of specific over non-specific precipitation, RαP58-130", "setting": "[7]; second antibody precipitation, vs normal rabbit serum", "result": "(4.4) x-fold"},
      {"measurement": "inhibition of 5-21-3 binding to rp41, in words", "setting": "[8]", "result": "potent inhibitor; also recorded: most potent inhibitor"},
      {"measurement": "Molar Ratio at 50% inhibition of 5-21-3 binding", "setting": "[8]; mean of two experiments, 0.4 pmol 5-21-3 IgG per well", "result": "72.7 pmoles peptide/pmoles 5-21-3"}
    ]},
    {"substance": "H-TVWGIKELQARILAVERYLKDQQLLGIWGCSGKLICTTAVPWNASWSNKSLEQIWNNMTWMEWDREINNYTSL-OH [P58-130]", "values": [
      {"measurement": "immuno-dot blot reactivity with 5-21-3", "setting": "[1]", "result": "did not react"},
      {"measurement": "immuno-dot blot reactivity with 10-15-63", "setting": "[2]", "result": "Little or no reactivity"},
      {"measurement": "immuno-dot blot reactivity with rabbit anti-P58-130 serum", "setting": "[3]", "result": "Strong reactivities"},
      {"measurement": "immuno-dot blot reactivity with mouse anti-rp41 serum", "setting": "[4]", "result": "Strong reactivities"},
      {"measurement": "binding of [125I]peptide by 5-21-3 (immunoprecipitation), in words", "setting": "[5]", "result": "unable to bind"},
      {"measurement": "SPECIFIC PRECIPITATION (CPM) by 5-21-3", "setting": "[5]; detergent-rich buffer (0.1% Triton X-100, 1.0% sodium deoxycholate, 0.1% SDS), Protein A-Sepharose", "result": 0, "unit": "CPM"},
      {"measurement": "x-fold increase of specific over non-specific precipitation, 5-21-3", "setting": "[5]; [11]", "result": "(<1) x-fold"},
      {"measurement": "SPECIFIC PRECIPITATION (CPM) by 10-15-63", "setting": "[6]; [11]", "result": 0, "unit": "CPM"},
      {"measurement": "x-fold increase of specific over non-specific precipitation, 10-15-63", "setting": "[6]; [11]", "result": "(<1) x-fold"},
      {"measurement": "precipitation of [125I]peptide by rabbit anti-P58-130, in words", "setting": "[7]", "result": "strong precipitator"},
      {"measurement": "SPECIFIC PRECIPITATION (CPM) by RαP58-130", "setting": "[7]; [11]", "result": "286,722 CPM"},
      {"measurement": "x-fold increase of specific over non-specific precipitation, RαP58-130", "setting": "[7]; [11]", "result": "(32) x-fold"},
      {"measurement": "inhibition of 5-21-3 binding to rp41, in words", "setting": "[8]", "result": "no detectable inhibition"}
    ]}
  ]
}
